Laboratory results reported in publication PMC9866601, “Constituents of Pulicaria inuloides and Cytotoxic Activities of Two Methoxylated Flavonols” (Molecules, 2023).
Read-outs that look alike come from different tables or passages of the source.

Tests used:
[1] = tested on: cholinesterase; parameters: method as in PMID 30673162; conditions: cited from earlier work
[2] = tested on: HeLa cells; parameters: method as in PMID 30673162; conditions: in vitro; cited from earlier work
[3] = tested on: A549 cells; parameters: method as in PMID 30673162; conditions: in vitro; cited from earlier work
[4] = tested on: A375 cells; experiment: MTT cytotoxicity assay, melanoma cells A375; assay type: cell-based, human; conditions: for IC50: Homo sapiens, A-375
Protocol: (§1) Cytotoxic activity was tested on human cancer and normal cells, namely: prostate cancer cell lines DU145 (ATCC HTB-81) and PC3 (ATCC CRL-1435), prostate epithelial cells PNT-2 (ECACC 95012613), melanoma cell lines A375 (ATCC CRL-1619) and HTB140 (ATCC Hs 294T) and skin keratinocytes HaCaT (obtained as a kind gift from prof. Marta Michalik, Department of Cell Biology, Jagiellonian University). DU145 cells were grown in a modified Eagle’s medium with a low (1.0 g/L) glucose concentration, as well as PC3 and PNT-2 cells in Dulbecco’s modified Eagle’s media: F12 HAM nutrient mixture. At the same time, melanoma cells and keratinocytes were maintained in a modified Eagle’s medium with a high (4.5 g/L) glucose concentration. The culture media (all supplied by Sigma-Aldrich Co.; St. Louis, MO, USA) contained antibiotics and 10% fetal bovine serum (FBS). All cultures were maintained at 37 °C in a humidified 5% CO2-containing atmosphere.
(§2) The examined flavonols were diluted in the culture media from freshly made stock solutions in MeOH (10 mg/mL) to the working concentrations (from 5 to 100 μg/mL).
(§3) Cells were seeded in 96-well plates (1.5 × 10^4 cells/well) and preincubated for 24 h (37 °C, 5% CO2). Then, the culture medium was replaced with a fresh medium containing different concentrations of the tested compounds (5–100 µg/mL). The incubation lasted 48 h. Cell viability was measured by an MTT assay, as previously described. The absorbance at 490 nm was measured using a Synergy II Biotek (BioTek Instruments, Winooski, VT, USA) microplate reader. Cytotoxic activity was assessed based on the cell viability expressed as the percentage of living cells. The results were the means of three independent measurements (±SD). Doxorubicin (Ebewe Pharma GmbH., Unterach, Austria) was used as a reference cytostatic drug. The IC50 values were determined by plotting the percentage viability of the cells versus the concentration and adequate calculations made using either Excel or the AAT Bioquest website program (https://www.aatbio.com/tools/ic50-calculator, accessed on 4 September 2022).

[5] = tested on: PC3 cells; experiment: MTT cytotoxicity assay, prostate cancer cells PC3; assay type: cell-based; conditions: Homo sapiens, PC-3, 48 h, 48 h treatment
Protocol: as §1, §2, §3

[6] = tested on: PNT-2 cells; experiment: MTT cytotoxicity assay, normal prostate epithelial cells PNT-2; assay type: cell-based; conditions: Homo sapiens, PNT2
Protocol: as §1, §2, §3

[7] = tested on: HaCaT cells; experiment: MTT cytotoxicity assay, skin keratinocytes HaCaT; assay type: cell-based, human; conditions: for IC50: Homo sapiens, HaCaT
Protocol: as §1, §2, §3

[8] = tested on: HTB140 cells; experiment: MTT cytotoxicity assay, melanoma cells HTB140; assay type: cell-based, human; conditions: for IC50: Homo sapiens
Protocol: as §1, §2, §3

[9] = tested on: DU145 cells; experiment: MTT cytotoxicity assay, prostate cancer cells DU145; assay type: cell-based; conditions: Homo sapiens, DU-145
Protocol: as §1, §2, §3

[10] = 48 h treatment, 5–100 μg/mL, MTT, read-out: IC50 A375
[11] = 48 h treatment, 5–100 μg/mL, MTT, read-out: IC50 PNT-2
[12] = 48 h treatment, 5–100 μg/mL, MTT, read-out: IC50 HaCaT
[13] = 48 h treatment, 5–100 μg/mL, MTT, read-out: IC50 HTB140
[14] = 48 h treatment, 5–100 μg/mL, MTT, read-out: IC50 DU145

C=C1CC/C=C(/CO)C(=O)C[C@@H]2[C@@H]1CC2(C)C [Compound 8, (1S,9R)-14-hydroxycaryophyll-5(6)-en-7-one]
anticholinesterase activity [1]: weak anticholinesterase activity
cytotoxic activity against HeLa cells [2]: moderate cytotoxic activity
cytotoxic activity against A549 cells [3]: moderate cytotoxic activity

C=C1CC/C=C(/CO)C(=O)C[C@@H]2[C@@H]1C[C@]2(C)COC(C)=O [Compound 9, (1S,9R)-12β-acetoxy-14-hydroxycaryophyll-5(6)-en-7-one]
anticholinesterase activity [1]: weak anticholinesterase activity
cytotoxic activity against HeLa cells [2]: moderate cytotoxic activity
cytotoxic activity against A549 cells [3]: moderate cytotoxic activity

COc1cc(-c2oc3cc(OC)c(O)c(O)c3c(=O)c2OC)ccc1O [Compound 11, quercetagetin 3,7,3′-trimethyl ether]
IC50 [4, 10]: > 100 µg/mL
IC50 ([4]; abstract, value in µM, read-out: IC50 A375 (remaining cell lines)): > 150 µM
cytotoxic activity toward melanoma cells (A375) ([4]; dose range of 5–100 μg/mL): not active
IC50 ([5]; 5–100 μg/mL): 16.8 ± 0.77 µg/mL
IC50 ([5]; value in µM): 46.6 µM
IC50 [6, 11]: 82.4 ± 2.42 µg/mL
IC50 ([6]; abstract, value in µM, read-out: IC50 PNT2 (remaining cell lines)): > 150 µM
IC50 [7, 12]: > 100 µg/mL
IC50 ([7]; abstract, value in µM, read-out: IC50 HaCaT (remaining cell lines)): > 150 µM
cytotoxic activity toward keratinocytes ([7]; dose range of 5–100 μg/mL): not active
IC50 [8, 13]: > 100 µg/mL
IC50 ([8]; abstract, value in µM, read-out: IC50 HTB140 (remaining cell lines)): > 150 µM
cytotoxic activity toward melanoma cells (HTB140) ([8]; dose range of 5–100 μg/mL): not active
IC50 [9, 14]: 54.87 ± 0.23 µg/mL
IC50 ([9]; abstract, value in µM, read-out: IC50 DU145 (remaining cell lines)): > 150 µM

COc1cccc2c1C(=O)c1c(O)c3c(c(O)c1C2=O)C[C@@](O)(C(=O)CO)C[C@@H]3O[C@H]1C[C@H](N)[C@H](O)[C@H](C)O1 [Doxorubicin, reference compound]
IC50 [4, 10]: 0.59 µg/mL
IC50 ([5]; 5–100 μg/mL): > 50 µg/mL
IC50 [6, 11]: 1.38 µg/mL
IC50 [7, 12]: 4.68 µg/mL
IC50 [8, 13]: 5.71 µg/mL
IC50 [9, 14]: 3.18 µg/mL
